# Results taken from patent US20060148858A1, “1, 2-Azole derivatives with hypoglycemic and hypolipidemic activity” (priority 2002, published 2006).
# Assays:
# PPARγ-RXRα heterodimer = biological target: T1, PPARγ-RXRα heterodimer (Homo sapiens, UniProt P37231); experiment: PPARγ-RXRα heterodimer ligand activity, luciferase reporter in PPARγ:RXRα:4ERPP/CHO-K1 cells (Test Example 3); type: cell-based; details: 18-48 hours, concentration for 50% of the maximum fold induction
# T1 construct: expressed in transfected cells; host or cells: CHO-K1
# T1 sequence (P37231 1-477 isoform P37231-2): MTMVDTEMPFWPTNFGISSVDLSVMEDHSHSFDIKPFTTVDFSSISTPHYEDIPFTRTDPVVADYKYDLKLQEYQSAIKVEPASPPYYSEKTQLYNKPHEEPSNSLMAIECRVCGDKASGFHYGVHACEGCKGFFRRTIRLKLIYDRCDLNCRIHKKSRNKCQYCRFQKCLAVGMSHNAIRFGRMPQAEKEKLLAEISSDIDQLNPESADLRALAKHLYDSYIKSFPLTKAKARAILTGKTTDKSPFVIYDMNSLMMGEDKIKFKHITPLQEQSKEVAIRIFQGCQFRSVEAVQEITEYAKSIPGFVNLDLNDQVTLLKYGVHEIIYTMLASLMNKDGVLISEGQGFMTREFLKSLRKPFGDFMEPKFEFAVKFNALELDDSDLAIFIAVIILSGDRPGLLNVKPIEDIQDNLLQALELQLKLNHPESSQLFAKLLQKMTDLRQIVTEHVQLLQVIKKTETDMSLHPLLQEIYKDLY
# T1 sequence (P19793 1-462 partner): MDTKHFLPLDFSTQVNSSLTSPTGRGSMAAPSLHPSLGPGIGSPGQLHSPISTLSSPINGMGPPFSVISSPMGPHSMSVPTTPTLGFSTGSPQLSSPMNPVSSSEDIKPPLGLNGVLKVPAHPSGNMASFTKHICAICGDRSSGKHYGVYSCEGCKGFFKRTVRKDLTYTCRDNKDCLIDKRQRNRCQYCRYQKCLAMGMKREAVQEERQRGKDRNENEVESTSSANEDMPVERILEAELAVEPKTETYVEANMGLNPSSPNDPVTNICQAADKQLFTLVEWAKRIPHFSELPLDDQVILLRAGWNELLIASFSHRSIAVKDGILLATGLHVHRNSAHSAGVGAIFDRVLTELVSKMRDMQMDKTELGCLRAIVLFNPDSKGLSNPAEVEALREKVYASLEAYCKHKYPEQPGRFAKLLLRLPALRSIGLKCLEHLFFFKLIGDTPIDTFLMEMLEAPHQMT
# In short: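 Stable CHO-K1 line co-expressing hPPARγ/RXR with 4ERPP-TK luciferase reporter, 2×10^4 cells per well, treated 18-48 h at 37° C. in HAM F12 with 0.1% fatty acid-free BSA. Luciferase fold induction versus untreated taken as 1; EC50 is concentration giving 50% of maximal fold induction.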
EC50 (PPARγ-RXRα heterodimer),melting point,SMILES
22 nM,76 to 77 °C,"CCC(CC)c1nn(-c2ccc(C(F)(F)F)nn2)cc1CCCOc1c(C)cccc1CC(=O)O [Example 340, [2-(3-{3-(1-ethylpropyl)-1-[6-(trifluoromethyl)pyridazin-3-yl]-1H-pyrazol-4-yl}propoxy)-3-methylphenyl]acetic acid]"
20 nM,94 to 95 °C,"CCC(CC)c1nn(-c2ccc(Br)cn2)cc1CCCOc1c(CC(=O)O)cccc1OC [Example 351, (2-{3-[1-(5-bromo-2-pyridinyl)-3-(1-ethylpropyl)-1H-pyrazol-4-yl]propoxy}-3-methoxyphenyl)acetic acid]"
41 nM,96 to 97 °C,"Cc1cccc(CC(=O)O)c1OCCCc1cn(-c2ccc(C(F)(F)F)nn2)nc1C(C)(C)C [Example 367, [2-(3-{3-tert-butyl-1-[6-(trifluoromethyl)pyridazin-3-yl]-1H-pyrazol-4-yl}propoxy)-3-methylphenyl]acetic acid]"
